Counter-ions that a name gives are not always drawn.

The record followed here is patent US20170233345A1, “SUBSTITUTED QUINOLINE-4-CARBOXAMIDES AND USE THEREOF” (BAYER PHARMA AKTIENGESELLSCHAFT, priority 2014, published 2017).

This assay concerns recombinant guanylate cyclase reporter cell line. The assay is described as follows: Effect on a recombinant guanylate cyclase reporter cell line. The class given is cell-based. The following applies: in some cases mean values from individual determinations, read-out: MEC (minimum effective concentration). The procedure: B-2. Effect on a Recombinant Guanylate Cyclase Reporter Cell Line
The cellular activity of the compounds according to the invention is determined using a recombinant guanylate cyclase reporter cell line, as described in F. Wunder et al., Anal. Biochem. 339, 104-112 (2005).
Representative MEC values (MEC=minimum effective concentration) for the compounds of the invention are shown in the table below (in some cases as mean values from individual determinations): […]
`COc1ccc(CC(C)(N)CNC(=O)c2ccnc3c(OCc4c(F)cccc4F)cccc23)cc1` (racemic) [Example 35, rac-N-[2-amino-3-(4-methoxyphenyl)-2-methylpropyl]-8-[(2,6-difluorobenzyl)oxy]quinoline-4-carboxamide trifluoroacetate]: the minimal effective concentration came out at 3 µM.

On to `CC(N)(CNC(=O)c1ccnc2c(OCc3c(F)cccc3F)cccc12)C1CC1` (racemic) [Example 42, rac-N-(2-Amino-2-cyclopropylpropyl)-8-[(2,6-difluorobenzyl)oxy]quinoline-4-carboxamide], for which the minimal effective concentration was 10 µM.

Regarding `Cc1cc(OCc2c(F)cccc2F)c2nccc(C(=O)NC(C)(CO)c3nnn(C(F)F)n3)c2c1` (racemic) [Example 49, rac-8-[(2,6-Difluorobenzyl)oxy]-N-{2-[2-(difluoromethyl)-2H-tetrazol-5-yl]-1-hydroxypropan-2-yl}-6-methylquinoline-4-carboxamide], the minimal effective concentration worked out at 2 µM.

For the molecule `COc1ccc(CC(C)(N)CNC(=O)c2ccnc3c(OCc4c(F)cccc4F)cccc23)cc1` (single isomer, unassigned; enantiomer a) [Example 36, ent-N-[2-Amino-3-(4-methoxyphenyl)-2-methylpropyl]-8-[(2,6-difluorobenzyl)oxy]quinoline-4-carboxamide (Enantiomer A)], the minimal effective concentration is 3 µM.

Consider `CC(N)(CCC(F)(F)F)CNC(=O)c1ccnc2c(OCc3c(F)cccc3F)cccc12` (single isomer, unassigned; enantiomer b) [Example 6, ent-N-(2-Amino-5,5,5-trifluoro-2-methylpentyl)-8-[(2,6-difluorobenzyl)oxy[quinoline-4-carboxamide (Enantiomer B)], for which the minimal effective concentration amounted to 0.3 µM.

Take `CC(N)(CNC(=O)c1ccnc2c(OCc3c(F)cccc3F)cccc12)CC(F)F` (single isomer, unassigned; enantiomer b) [Example 7, ent-N-(2-Amino-4,4-difluoro-2-methylbutyl)-8-[(2,6-difluorobenzyl)oxy]quinoline-4-carboxamide (Enantiomer B)]: the minimal effective concentration is 2 µM.

For `COc1ccc(CC(C)(N)CNC(=O)c2ccnc3c(OCc4c(F)cccc4F)cccc23)cc1` (single isomer, unassigned; enantiomer b) [Example 37, ent-N-[2-Amino-3-(4-methoxyphenyl)-2-methylpropyl]-8-[(2,6-difluorobenzyl)oxy]quinoline-4-carboxamide (Enantiomer B)], the minimal effective concentration was 10 µM.

On to `CC(N)(CCC(F)(F)F)CNC(=O)c1cnc2c(OCc3c(F)cccc3F)cccc2c1` (single isomer, unassigned; enantiomer b) [Example 40, ent-N-(2-Amino-5,5,5-trifluoro-2-methylpentyl)-8-[(2,6-difluorobenzyl)oxy]quinoline-3-carboxamide (Enantiomer B)], for which the minimal effective concentration amounted to 10 µM.

On to `Cc1cc(C(=O)NCC(C)(N)CCC(F)(F)F)c2cccc(OCc3c(F)cccc3F)c2n1` (single isomer, unassigned; enantiomer b) [Example 43, ent-N-(2-Amino-5,5,5-trifluoro-2-methylpentyl)-8-[(2,6-difluorobenzyl)oxy]-2-methylquinoline-4-carboxamide (Enantiomer B)], for which the minimal effective concentration is listed as 1 µM.

In the case of `Cc1cc(OCc2c(F)cccc2F)c2nccc(C(=O)NCC(C)(N)CCC(F)(F)F)c2c1` (single isomer, unassigned; enantiomer b) [Example 45, ent-N-(2-Amino-5,5,5-trifluoro-2-methylpentyl)-8-[(2,6-difluorobenzyl)oxy]-6-methylquinoline-4-carboxamide (Enantiomer B)], the minimal effective concentration stood at 0.65 µM.

Regarding `CCC(C)(N)CNC(=O)c1cc(C)nc2c(OCc3c(F)cccc3F)cccc12` (single isomer, unassigned; enantiomer b) [Example 47, ent-N-(2-Amino-2-methylbutyl)-8-[(2,6-difluorobenzyl)oxy]-2-methylquinoline-4-carboxamide (Enantiomer B)], the minimal effective concentration came out at 3 µM.

Regarding `CC(C)(O)C(CCC(F)(F)C(F)(F)F)NC(=O)c1ccnc2c(OCc3c(F)cccc3F)cccc12` (single isomer, unassigned; ent-8) [Example 32, ent-8-[(2,6-Difluorobenzyl)oxy]-N-(6,6,7,7,7-pentafluoro-2-hydroxy-2-methylheptan-3-yl)quinoline-4-carboxamide (Enantiomer A)], the minimal effective concentration turned out to be 2 µM.

Take `O=C(NC1(c2ccc(F)c(F)c2)CC1)c1ccnc2c(OCc3c(F)cccc3F)cccc12` [Example 1, 8-[(2,6-Difluorobenzyl)oxy]-N-[1-(3,4-difluorophenyl)cyclopropyl]quinoline-4-carboxamide]: the minimal effective concentration is 3 µM.

Regarding `O=C(Nc1ccnc2ccc(F)cc12)c1ccnc2c(OCc3c(F)cccc3F)cccc12` [Example 2, 8-[(2,6-Difluorobenzyl)oxy]-N-(6-fluoroquinolin-4-yl)quinoline-4-carboxamide], the minimal effective concentration stood at 10 µM.

With `CCCC[C@H](C)NC(=O)c1ccnc2c(OCc3c(F)cccc3F)cccc12` [Example 3, 8-[(2,6-Difluorobenzyl)oxy]-N-[(2S)-hexan-2-yl]quinoline-4-carboxamide], the minimal effective concentration came to 1 µM.

For the molecule `CCCC[C@H](CO)NC(=O)c1ccnc2c(OCc3c(F)cccc3F)cccc12` [Example 4, 8-[(2,6-Difluorobenzyl)oxy]-N-[(2R)-1-hydroxyhexan-2-yl]quinoline-4-carboxamide], the minimal effective concentration was 3 µM.

As to `CC[C@](C)(N)CNC(=O)c1ccnc2c(OCc3c(F)cccc3F)cccc12` [Example 5, N-[(2S)-2-Amino-2-methylbutyl]-8-[(2,6-difluorobenzyl)oxy]quinoline-4-carboxamide], the minimal effective concentration came to 3 µM.

With `O=C(NCCC1(O)CCCC1)c1ccnc2c(OCc3c(F)cccc3F)cccc12` [Example 8, 8-[(2,6-Difluorobenzyl)oxy]-N-[2-(1-hydroxycyclopentyl)ethyl]quinoline-4-carboxamide], the minimal effective concentration came to 3 µM.

Regarding `O=C(NC1c2ccccc2CC1O)c1ccnc2c(OCc3c(F)cccc3F)cccc12` (stereo not shown) [Example 9], the minimal effective concentration came out at 3 µM.

Consider `O=C(N[C@@H](CO)C(=O)Nc1ccc2ccccc2c1)c1ccnc2c(OCc3c(F)cccc3F)cccc12` [Example 10], for which the minimal effective concentration was found to be 10 µM.

Consider `CCC(N)(CC)CNC(=O)c1ccnc2c(OCc3c(F)cccc3F)cccc12` [Example 11], for which the minimal effective concentration worked out at 3 µM.

Take `CC1(C)CC(NC(=O)c2ccnc3c(OCc4c(F)cccc4F)cccc23)CC(C)(C)N1` [Example 12]: the minimal effective concentration came to 10 µM.

Consider `O=C(NC1CC1c1ccccc1)c1ccnc2c(OCc3c(F)cccc3F)cccc12` (stereo not shown) [Example 13], for which the minimal effective concentration came out at 10 µM.

With `CN(C)CCNC(=O)c1ccnc2c(OCc3c(F)cccc3F)cccc12` [Example 14], the minimal effective concentration was 10 µM.

In the case of `O=C(NCc1ccccc1-c1cccnc1)c1ccnc2c(OCc3c(F)cccc3F)cccc12` [Example 15], the minimal effective concentration came to 10 µM.

As to `O=C(NCCN1CCOCC1)c1ccnc2c(OCc3c(F)cccc3F)cccc12` [Example 16], the minimal effective concentration was 10 µM.

Consider `Cc1nn(Cc2ccc(F)cc2)c(C)c1NC(=O)c1ccnc2c(OCc3c(F)cccc3F)cccc12` [Example 17], for which the minimal effective concentration stood at 10 µM.

As for `CC(NC(=O)c1ccnc2c(OCc3c(F)cccc3F)cccc12)c1nc(C(F)(F)F)no1` (stereo not shown) [Example 18], the minimal effective concentration is 3 µM.

Take `Cc1[nH]nc(C(F)(F)F)c1NC(=O)c1ccnc2c(OCc3c(F)cccc3F)cccc12` [Example 19]: the minimal effective concentration came to 3 µM.

Turning to `O=C(NCc1ccc(Cl)nc1)c1ccnc2c(OCc3c(F)cccc3F)cccc12` [Example 20], the minimal effective concentration was 3 µM.

In the case of `CC(COCC(F)(F)F)NC(=O)c1ccnc2c(OCc3c(F)cccc3F)cccc12` (stereo not shown) [Example 21], the minimal effective concentration turned out to be 3 µM.

On to `O=C(NCC1(O)CC1)c1ccnc2c(OCc3c(F)cccc3F)cccc12` [Example 22], for which the minimal effective concentration was determined as 3 µM.

As to `O=C(NCCN(CC(F)F)C1CC1)c1ccnc2c(OCc3c(F)cccc3F)cccc12` [Example 23], the minimal effective concentration was determined as 3 µM.

On to `O=C(N[C@H]1CCOC1=O)c1ccnc2c(OCc3c(F)cccc3F)cccc12` [Example 24], for which the minimal effective concentration stood at 10 µM.

Consider `CCC(CO)(CO)NC(=O)c1ccnc2c(OCc3c(F)cccc3F)cccc12` [Example 25], for which the minimal effective concentration was 10 µM.

Take `CN1CCC(NC(=O)c2ccnc3c(OCc4c(F)cccc4F)cccc23)c2ccccc21` (stereo not shown) [Example 27]: the minimal effective concentration came out at 1 µM.

On to `O=C(NCc1ccccc1-n1ccnc1)c1ccnc2c(OCc3c(F)cccc3F)cccc12` [Example 28], for which the minimal effective concentration was 3 µM.

Regarding `O=C(NC1CCCc2ccccc21)c1ccnc2c(OCc3c(F)cccc3F)cccc12` (stereo not shown) [Example 29], the minimal effective concentration is 0.3 µM.

With `O=C(Nc1cnn(CCO)c1)c1ccnc2c(OCc3c(F)cccc3F)cccc12` [Example 30], the minimal effective concentration worked out at 10 µM.

On to `N#CC(NC(=O)c1ccnc2c(OCc3c(F)cccc3F)cccc12)c1ccc(Cl)cc1` (stereo not shown) [Example 31], for which the minimal effective concentration worked out at 3 µM.

For the molecule `O=C(NC(CO)c1ccc(F)cc1)c1ccnc2c(OCc3c(F)cccc3F)cccc12` (stereo not shown) [Example 33], the minimal effective concentration is 2 µM.

As for `O=C(NC1CCOc2ncccc21)c1ccnc2c(OCc3c(F)cccc3F)cccc12` (stereo not shown) [Example 34], the minimal effective concentration amounted to 1 µM.

With `CCCC[C@H](CO)NC(=O)c1cnc2c(OCc3c(F)cccc3F)cccc2c1` [Example 38, 8-[(2,6-Difluorobenzyl)oxy]-N-[(2R)-1-hydroxyhexan-2-yl]quinoline-3-carboxamide], the minimal effective concentration worked out at 3 µM.
